Earlier results, collected in patent publication US20030109488A1, “Methods for treating dry eye” (Alcon, Inc., priority 2001, published 2003).

Test system: human conjunctival epithelial cells
Conditions: background statement, no data given

## CCCCC[C@H](O)/C=C/C=C\C/C=C\C/C=C\CCCC(=O)O [15-HETE]
  secretion of mucin-1 (MUC-1): increase the secretion of mucin-1 (MUC-1)
